This passage reports EC50 results from ChEMBL document CHEMBL1130847, “Synthesis and pharmacology of N-alkylated derivatives of the excitotoxin ibotenic acid” (Bioorg Med Chem Lett, 1998).

The target in assay [1] is Metabotropic glutamate receptor 1 (Rattus norvegicus, UniProt P23385). The assay is described as follows: Compound was evaluated for agonistic activity against mGluR1 alpha metabotropic receptor subtype in rat cortical slice model. The format is functional.
For assay [2], the species on record is Rattus norvegicus. Description: Evaluated for effective concentration in, in vitro electrophysiological model in the rat cortical slice model. The format is functional.

Chain of Metabotropic glutamate receptor 1 (P23385 whole entry): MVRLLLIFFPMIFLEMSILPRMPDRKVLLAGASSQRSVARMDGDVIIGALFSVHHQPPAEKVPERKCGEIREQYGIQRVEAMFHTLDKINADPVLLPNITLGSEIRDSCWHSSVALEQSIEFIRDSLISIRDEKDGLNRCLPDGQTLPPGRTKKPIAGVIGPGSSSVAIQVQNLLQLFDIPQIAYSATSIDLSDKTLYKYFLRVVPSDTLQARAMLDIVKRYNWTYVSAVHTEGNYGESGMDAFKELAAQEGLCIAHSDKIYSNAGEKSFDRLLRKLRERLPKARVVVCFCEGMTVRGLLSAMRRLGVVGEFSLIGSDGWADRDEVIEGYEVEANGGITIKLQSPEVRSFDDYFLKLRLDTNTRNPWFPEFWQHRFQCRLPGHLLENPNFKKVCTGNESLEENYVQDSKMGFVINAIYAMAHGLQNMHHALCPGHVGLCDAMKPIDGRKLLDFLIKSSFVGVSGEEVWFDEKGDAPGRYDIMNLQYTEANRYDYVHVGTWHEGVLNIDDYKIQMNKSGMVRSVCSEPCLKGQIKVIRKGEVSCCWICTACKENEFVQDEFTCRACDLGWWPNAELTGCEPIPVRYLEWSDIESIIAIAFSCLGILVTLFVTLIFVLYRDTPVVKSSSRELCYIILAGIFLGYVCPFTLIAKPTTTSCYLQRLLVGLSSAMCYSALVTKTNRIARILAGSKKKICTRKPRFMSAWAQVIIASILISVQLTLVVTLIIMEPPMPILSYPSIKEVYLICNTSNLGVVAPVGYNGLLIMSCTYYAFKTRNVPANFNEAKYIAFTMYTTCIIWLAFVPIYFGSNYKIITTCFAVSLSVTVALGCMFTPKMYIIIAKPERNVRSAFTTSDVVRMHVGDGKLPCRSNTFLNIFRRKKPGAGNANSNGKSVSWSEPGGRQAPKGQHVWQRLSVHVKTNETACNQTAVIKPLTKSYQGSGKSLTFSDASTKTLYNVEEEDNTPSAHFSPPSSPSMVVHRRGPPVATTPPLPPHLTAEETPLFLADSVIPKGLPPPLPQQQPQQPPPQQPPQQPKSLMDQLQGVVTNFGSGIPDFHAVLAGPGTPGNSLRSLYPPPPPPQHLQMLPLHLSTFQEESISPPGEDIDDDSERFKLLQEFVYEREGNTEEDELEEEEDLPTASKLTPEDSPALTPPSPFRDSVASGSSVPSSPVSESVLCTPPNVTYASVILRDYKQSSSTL

Turning to `Cc1onc(O)c1C(N)C(=O)O` (stereo not given), the EC50 was over 1000 µM in assay [1] and 12 µM in assay [2].
The like results for `NC(C(=O)O)c1cc(O)no1` (stereo not given) were, in that order, 43 µM and 9.6 µM.
The corresponding values for `CCNC(C(=O)O)c1cc(O)no1` (stereo not given) are over 1000 µM and 320 µM.
For `O=C(O)C(NCc1ccccc1)c1cc(O)no1` (stereo not given), the EC50 in assay [1] and in assay [2] was over 1000 µM throughout.
Take `CNC(C(=O)O)c1cc(O)no1` (stereo not given): the values for the EC50 in assay [1] and in assay [2] were over 1000 µM and 140 µM, respectively.
